Experimental findings from patent US11833204B2, “Visible light-activatable nanoparticles for cancer immunotherapy and use thereof” (KOREA INSTITUTE OF SCIENCE AND TECHNOLOGY, priority 2021, dated 2023) are described below.

Data set [1] relates to CT26 cells. In words: Anticancer effect in CT26 tumor animal model. Type of data set: in vivo, mice. On the procedure:
(§1) […] nude mice (6 weeks old, 20-25 g, male) bred in a sterile environment were used. The mice were acclimated for 2 weeks prior to starting the experiment. The mice had ad libitum access to food and water in cages maintained at a temperature of 22±2° C. and a humidity of 40-60% on a 12 h light and dark cycle during the experiment. All experimental procedures were performed according to the guidelines of the Institutional Animal Care and Use Committee of the Korea Institute of Science and Technology.
Colon cancer was induced in the male nude mice. To this end, 1×10^6 CT26 cells were subcutaneously inoculated into the left thigh of each mouse to construct a tumor animal model. Thereafter, the tumor was allowed to grow until its volume reached ˜200-250 mm^3 prior to the experiment. For sample administration, the mice were randomly divided into 4 groups, 24 animals per group. In a control (“Con”), animals were administered intravenously PBS at a concentration of 5 mg/kg twice on days 0 and 2. In a DOX-administered group, animals were administered intravenously doxorubicin (DOX) at a concentration of 5 mg/kg twice on days 0 and 2. In a VPF(+L)-administered group, animals were administered intravenously verteporfin (VPF) at a concentration of 5 mg/kg twice on days 0 and 2 and exposed by irradiation with visible light using a 671 nm laser at 40 mW for 250 sec. In an LT-NPs(-L)-administered group, animals were administered intravenously the self-assembled nanoparticles (LT-NPs) at a concentration of 5 mg/kg twice on days 0 and 2. In an LT-NPs(+L)-administered group, animals were administered intravenously the self-assembled nanoparticles (LT-NPs) at a concentration of 5 mg/kg twice on days 0 and 2 and exposed by irradiation with visible light using a 671 nm laser at 40 mW for 250 sec.
Changes in tumor volume (maximum diameter x minimum diameter^2×0.53) in the groups were measured every 2 days for a total of 0-25 days. After 7 days, blood was harvested from each group and analyzed for HSP70, HMGB1, immunogenic apoptotic cancer cells, mature dendritic cells, activated T cells, and IFN-γ levels.
9 h after drug administration, cancer tissues were excised from each group. Each cancer tissue was sectioned to a thickness of 10 μm, washed twice with DBPS, and stained with DAPI in the dark for 15 min. The section was imaged using a Leica TCS SP8 focal microscope (Leica Microsystems GmbH).
Immune cells infiltrated into cancer cells in each group were analyzed. After 7 days, animals in each group were euthanized under anesthesia and cancer tissues were collected. Monocytes were isolated using a tumor dissociation kit (Miltenyi Biotec) according to the manufacturer's protocol. Next, the monocytes were incubated with Fc block for 5 min to avoid non-specific binding and stained with antibodies for 1 h to determine the proportions of i) immunogenic apoptotic cancer cells (CD45 and CRT staining), ii) activated T cells (CD45, CD3, and CD8 staining), and iii) mature dendritic cells (CD11c, CD40, and CD86 staining) in the cancer tissues.

The test system of data set [2] is CT26 cells. In words: In vivo behaviour and tumor accumulation in CT26 tumor animal model. Also noted: species or system mice. The following applies: 5 mg/kg i.v. On the procedure: as §1
Colon cancer was induced in the male nude mice. To this end, 1×10^6 CT26 cells were subcutaneously inoculated into the left thigh of each mouse to construct a tumor animal model. Thereafter, the tumor was allowed to grow until its volume reached ˜200-250 mm^3 prior to the experiment. For sample administration, the mice were randomly divided into 4 groups, 24 animals per group. Verteporfin (VPF) was intravenously administered at a concentration of 5 mg/kg (“VPF-administered group”) and the self-assembled nanoparticles (LT-NPs) were intravenously administered at a concentration of 5 mg/kg (“LT-NPs-administered group”).
The in vivo behaviors of the drugs in the administered groups were evaluated by near-infrared imaging using an IVIS Lumina system for 0.5-9 h.

The nature of data set [3]: Morphological analysis by transmission electron microscopy in saline. In kind it is physicochemical. As to conditions: 1 mg in 1 mL physiological saline. How it is done:
The self-assembled nanoparticles (LT-NPs) prepared in Example 1, doxorubicin (DOX), and verteporfin (VPF) were used as samples. 1 mg of each sample was mixed with physiological saline (1 mL). […] The self-assembled nanoparticles (LT-NPs) were mixed with cathepsin B (Cat-B) protease (50 μg/mL). The mixture was allowed to react for 24 h.

The nature of data set [4]: Stability of LT-NPs in mouse plasma (size by DLS). In kind it is in vitro ADME, BALB/c mice. The following applies: BALB/c mouse plasma, 0-72 h. On the procedure: In this example, the stability of the self-assembled nanoparticles (LT-NPs) in a body fluid was determined. To this end, the self-assembled nanoparticles (LT-NPs) were stored in plasma samples from BALB/c mice for 0, 1, 3, 6, 24, 48, and 72 h and their sizes were measured by dynamic light scattering (DLS).

A short description of data set [5]: ROS generation under 671 nm laser (RNO test). As to conditions: 10 μM, 671 nm laser 40 mW 250 sec. How it is done:
ROS generation was analyzed by RNO test, where bleaching of N-nitrosodimethylaniline (RNO) by ROS was observed as a decrease in absorbance at 440 nm.
To determine the reactivity of the self-assembled nanoparticles (LT-NPs) to visible light, experimental samples and a comparative sample were prepared as follows. Each sample was mixed with a 10 μM RNO standard solution and irradiated with visible light using a 671 nm laser (SDL-671 series, Shanghai Dream Laser Technology Co., Ltd.) at a power of 40 mW for 250 sec. Absorbances were measured at 440 nm over time while being irradiated with visible light.
Control sample (VPF, control): Verteporfin (VPF) (10 μM) was mixed with physiological saline (1 mL).
Experimental sample 1 (LT-NPs(-Cat-B)): The self-assembled nanoparticles (LT-NPs) (10 μM) prepared in Example 1 were mixed with physiological saline (1 mL).
Experimental sample 2 (LT-NPs(+Cat-B)): The self-assembled nanoparticles (LT-NPs) (10 μM) prepared in Example 1 were mixed with distilled water (200 μL) containing cathepsin B (10 μg) and 1.2 mM histidine. […]
First, the absorbance before laser irradiation was defined as 1 and reduction rates of the absorbance values measured at 440 nm with respect to the absorbance before laser irradiation were calculated. The calculated values were transformed into negative natural logs (−In(y)), which were then multiplied by 100. […]

Setting [6] is: after 7 days, +L, Western blotting, versus other groups.

Regarding `C=CC1=C(C)/C2=C/C3=NC(Cc4[nH]c(c(CCCCC(=O)OC)c4C)CC4N=C(CC1N2)C(C)=C4CCC(=O)N[C@H](Cc1ccccc1)C(=O)N[C@@H](CCCNC(=N)N)C(=O)N[C@H](CCCNC(=N)N)C(=O)NCC(=O)NC1C[C@@H](OC2C[C@](O)(C(=O)CO)Cc4c(O)c5c(c(O)c42)C(=O)c2c(OC)cccc2C5=O)O[C@@H](C)[C@H]1O)[C@@]1(C)C3=CC=C(C(=O)OC)[C@@H]1C(=O)OC` (stereo partly drawn) [LT-NPs, VPF-FRRG(SEQ ID NO: 1)-DOX], in the data set on CT26 cells [1] (5 mg/kg i.v. days 0 and 2, +L), the “number of animals cured” value was determined as 3. Further, the “growth of cancer cells (tumor volume)” value in the data set with CT26 cells [1] (5 mg/kg i.v. days 0 and 2, +L (671 nm laser 40 mW 250 sec), versus other groups) is reported as “significantly reduced”. Also, in the data set with CT26 cells [1] (after 7 days, +L), the “proportion of activated T cells in cancer tissues” value is recorded as “significantly higher than those in the other groups”, the “proportion of immunogenic apoptotic cancer cells in cancer tissues” value is on record as “significantly higher than those in the other groups” and the “proportion of mature dendritic cells in cancer tissues” value was “significantly higher than those in the other groups”. Further, in the data set with CT26 cells [1] (setting [6]), the “expression level of HMGB1” value is given as “significantly high” and the “expression level of HSP70” value was “significantly high”. For the same compound, the “degree of apoptosis in cancer cells” value with CT26 cells [1] (after 7 days, +L, versus other groups) was “significantly high”. The “accumulation in cancer cells (histological analysis)” value in the data set with CT26 cells [2] was “accumulated in cancer cells with significantly higher efficacy than the conventional anticancer drug”. Moreover, the “fluorescence intensity in cancer cells (near-infrared imaging)” value with CT26 cells [2] (0.5-9 h, IVIS Lumina) is “higher than those of Group 1 treated with verteporfin”. Moreover, the “fluorescence intensity in cancer cells (drug accumulated in tissues)” value in the data set on CT26 cells [2] (liver, lung, spleen, kidney, heart, tumor) is “higher than those of Group 1 treated with verteporfin”. Besides, the “morphology in physiological saline (TEM)” value in data set [3] is given as “dispersed without aggregation in saline”. Besides, the “time-dependent change in size in mouse plasma” value in data set [4] was “stably maintained their morphology in the body fluid”. Moreover, in data set [5] (cleaved with cathepsin B), the “amount of ROS generated, relative to verteporfin (VPF)” value was determined as 80%. Besides, in data set [5] (without Cat-B), the “reactivity with visible light (ROS generation), stable state” value was “hardly reactive with visible light”.
